From paper PMC5517562, “Design and discovery of novel monastrol-1,3,5-triazines as potent anti-breast cancer agent via attenuating Epidermal Growth Factor Receptor tyrosine kinase” (Scientific Reports, 2017)
Where two headings read alike, the source gives them in different places.

Experiments:
[1] = system: MCF 12A (normal epithelial breast cell line); assay: MTT assay on normal cells, MCF 12A; assay type: cell-based, human; conditions: normal epithelial breast cell MCF 12A; for IC50: Homo sapiens
Protocol: (§1) The synthesized compounds were evaluated for in-vitro cytotoxic activity against various cell lines such as HeLa (cervical cancer), MCF-7 (breast cancer), HL-60 (Human promyelocytic leukemia), HepG2 (Hepatocellular carcinoma) and MCF 12A (normal epithelial cell) by the MTT assay method. […] The relationship between surviving fraction and drug concentration was plotted to obtain the survival curve of all the cancer cell lines HeLa, MCF-7, HL-60 and HepG2. The response parameter calculated was the IC50 values, which responds to the concentration required for 50% inhibition of cell viability. The in-vitro cytotoxic activity of the synthesized compounds is summarized Table 3.
The presence of non-halogen substituent along with electron donating substituent seriously jeopardise the anticancer potential. […] To determine the selectivity of these molecules between normal and cancerous cells, the designed compounds were also tested against MCF 12A, a normal epithelial breast cell.
(§2) The target compounds were subjected to in vitro cytotoxicity bioassay. In vitro cytotoxicity was determined using a standard MTT assay with protocol appropriate for the individual test system[29]–[31]. The four human cancer cell lines HeLa, MCF-7, HL-60, HepG2 and MCF-12A were cultured in the MEM medium supplemented with 10% FBS, 1% glutamine and […] gentamicin sulfate in a CO2 incubator in a humidified atmosphere of 5% CO2 and 95% air. The test compounds were prepared prior to the experiment by dissolving in 0.1% DMSO and diluted with medium. The cells were then exposed to different concentrations of drugs ([…]) in the volume of […]. Cells in the control wells received the same volume of medium containing 0.1% DMSO. After 24 h, the medium was removed and cell cultures were incubated with […] MTT reagent (1 mg/ml) for 5 h at 37 °C. The known number of cells ([…]) was incubated in a 5% CO2 incubator at 37 °C in the presence of different concentrations of test compounds. After 48 h of drug incubation, the MTT solution was added in each well and absorbance was recorded at 540 nm by an ELISA reader. The experiment was performed in triplicate. Cell survival was calculated as the percentage of MTT inhibition as % growth inhibition = 100 − (mean OD of individual test Group/Mean OD of each Control Group) × 100.

[2] = target: T1, EGFR-TK (Homo sapiens, UniProt P00533); assay: EGFR tyrosine kinase inhibitory activity (Kinase-Glo Plus luminescence); assay type: biochemical; conditions: for inhibition at 10 µM: read-out: Percent of Inhibition, EGFR tyrosine kinase; for %i: EGFR-TK percent inhibition as repeated in docking Table 5; for inhibition at 10 µM / Percent of Inhibition, EGFR tyrosine kinase: at 10 µM
T1 construct: 0.2 mg/mL Poly (Glu, Tyr) substrate, 10 mM ATP and EGFR
T1 sequence (P00533 25-1210): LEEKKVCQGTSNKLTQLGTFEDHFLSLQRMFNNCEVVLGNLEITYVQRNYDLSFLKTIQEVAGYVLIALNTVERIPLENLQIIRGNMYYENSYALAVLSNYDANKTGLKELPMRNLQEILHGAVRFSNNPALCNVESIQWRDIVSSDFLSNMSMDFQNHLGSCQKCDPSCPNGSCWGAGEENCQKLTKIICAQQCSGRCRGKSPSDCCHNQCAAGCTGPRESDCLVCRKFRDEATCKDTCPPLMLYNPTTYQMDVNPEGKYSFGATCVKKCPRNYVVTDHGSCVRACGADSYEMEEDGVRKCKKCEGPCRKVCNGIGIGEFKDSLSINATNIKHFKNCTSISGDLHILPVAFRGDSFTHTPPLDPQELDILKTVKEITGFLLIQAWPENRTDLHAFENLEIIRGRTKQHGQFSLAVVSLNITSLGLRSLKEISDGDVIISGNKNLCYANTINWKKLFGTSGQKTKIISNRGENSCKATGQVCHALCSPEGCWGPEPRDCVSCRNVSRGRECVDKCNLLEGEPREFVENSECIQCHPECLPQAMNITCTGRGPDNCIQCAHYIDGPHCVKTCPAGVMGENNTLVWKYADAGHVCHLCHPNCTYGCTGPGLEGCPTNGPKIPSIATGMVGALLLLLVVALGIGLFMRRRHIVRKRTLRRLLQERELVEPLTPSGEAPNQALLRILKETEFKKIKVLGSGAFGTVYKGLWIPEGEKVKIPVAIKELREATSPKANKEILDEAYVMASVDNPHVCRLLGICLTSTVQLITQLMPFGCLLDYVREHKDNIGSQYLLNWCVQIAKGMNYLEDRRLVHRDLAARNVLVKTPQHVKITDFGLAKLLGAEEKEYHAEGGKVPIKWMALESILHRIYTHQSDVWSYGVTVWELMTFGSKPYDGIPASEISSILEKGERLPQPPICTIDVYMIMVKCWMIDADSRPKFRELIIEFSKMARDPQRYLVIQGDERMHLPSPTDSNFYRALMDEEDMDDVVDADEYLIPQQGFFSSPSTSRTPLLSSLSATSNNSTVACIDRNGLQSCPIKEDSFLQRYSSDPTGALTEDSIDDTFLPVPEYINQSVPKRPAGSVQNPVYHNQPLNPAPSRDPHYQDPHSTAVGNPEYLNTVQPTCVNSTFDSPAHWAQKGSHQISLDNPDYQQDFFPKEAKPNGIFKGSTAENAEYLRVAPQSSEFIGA
Protocol: Kinase activity was determined using Kinase-Glo Plus luminescence kinase assay kit, by quantitating the amount of ATP remaining in the solution of kinase reaction. The luminescent signal is correlated with the residual amount present and it was inversely related with kinase activity. The tested compounds were diluted to 100 mM in 10% DMSO, then […] of the dilution was added to a 50 mL reaction. All of the enzymatic reactions were performed at 30 °C for 40 min, 50 mL of reaction mixture contains 10 mM MgCl2, 40 mM Tris, pH 7.4, 0.1 mg/mL BSA, 0.2 mg/mL Poly (Glu, Tyr) substrate, 10 mM ATP and EGFR. Incubate the plate for 5 min at r.t. then add 50 mL of Kinase-GloPlus Luminescence kinase assay to each reaction. ADP-Glo assay kit is the protein kinase assays used to determine IC50 values in which ADP generation was measured as it leads to an increase in luminescence signal. The reaction mixture was incubated in a 96-well plate at 30 °C for 30 min, after the incubation period add 25 mL of ADP-Glo reagent to terminate the assay. Shake the 96-well plate for 30 min at ambient temperature then incubate it, then add 50 mL of kinase detection reagent. Read the 96-well plate using the ADP-Glo Luminescence reader. All the assay components were added to the blank control except the substrate. By removing the blank control value you can obtain the corrected activity for each protein kinase target.

[3] = system: HL-60 (Human promyelocytic leukemia); assay: MTT in vitro cytotoxicity assay, HL-60; assay type: cell-based
Protocol: as §1, §2

[4] = system: MCF-7 (breast cancer); assay: MTT in vitro cytotoxicity assay, MCF-7; assay type: cell-based, human
Protocol: as §1, §2

[5] = system: HeLa (cervical cancer); assay: MTT in vitro cytotoxicity assay, HeLa; assay type: cell-based, human
Protocol: as §1, §2

[6] = system: HepG2 (Hepatocellular carcinoma); assay: MTT in vitro cytotoxicity assay, HepG2; assay type: cell-based, human; conditions: NA: Not active
Protocol: as §1, §2

| SMILES | IC50 MCF 12A [1] | inhibition at 10 µM [2] [%] | IC50 ([3]; Homo sapiens) [µM] | melting point [°C] | IC50 ([4]; Homo sapiens, MCF7) [µM] | IC50 ([5]; Homo sapiens) [µM] | IC50 HepG2 [6] | IC50 ([6]; Homo sapiens) [µM] | IC50 [1] [µM] | %i [2] [%] | Percent of Inhibition, EGFR tyrosine kinase [2] [%] | IC50 [3] [µM] | IC50 [4] [µM] | IC50 [5] [µM] | IC50 [6] [µM] |
| --- | --- | --- | --- | --- | --- | --- | --- | --- | --- | --- | --- | --- | --- | --- | --- |
| CCOC(=O)C1=C(C)N(c2nc(Nc3ccccc3)nc(Nc3ccccc3)n2)C(=S)NC1c1ccccc1 (centres unmarked) [7a, Ethyl 1-(4,6-bis(phenylamino)-1,3,5-triazin-2-yl)-6-methyl-4-phenyl-2-thioxo-1,2,3,4-tetrahydropyrimidine-5-carboxylate] | non-toxic | 52.4 | 83.7 ± 0.27 | 225 to 227 | 87.4 ± 0.76 | 96.6 ± 0.45 | inactive | – | – | – | – | – | – | – | – |
| CCOC(=O)C1=C(C)N(c2nc(Nc3ccc([N+](=O)[O-])cc3)nc(Nc3ccc([N+](=O)[O-])cc3)n2)C(=S)NC1c1ccc(C)cc1 (centres unmarked) [7b, Ethyl 1-(4,6-bis((4-nitrophenyl)amino)-1,3,5-triazin-2-yl)-6-methyl-2-thioxo-4-(p-tolyl)-1,2,3,4-tetrahydropyrimidine-5-carboxylate] | non-toxic | 56.7 | 77.3 ± 0.41 | 183 to 185 | 76.5 ± 0.54 | 81.8 ± 0.34 | – | 79.3 ± 0.75 | – | – | – | – | – | – | – |
| CCOC(=O)C1=C(C)N(c2nc(Nc3ccccc3[N+](=O)[O-])nc(Nc3ccccc3[N+](=O)[O-])n2)C(=S)NC1c1ccc(C)cc1 (centres unmarked) [7c, Ethyl 1-(4,6-bis((2-nitrophenyl)amino)-1,3,5-triazin-2-yl)-6-methyl-2-thioxo-4-(p-tolyl)-1,2,3,4-tetrahydropyrimidine-5-carboxylate] | non-toxic | 53.6 | 70.5 ± 0.49 | 232 to 234 | 72.2 ± 0.61 | 83.5 ± 0.22 | – | 86.4 ± 0.67 | – | – | – | – | – | – | – |
| CCOC(=O)C1=C(C)N(c2nc(Nc3cccc(Cl)c3)nc(Nc3cccc(Cl)c3)n2)C(=S)NC1c1ccc(O)cc1 (centres unmarked) [7d, Ethyl 1-(4,6-bis((3-chlorophenyl)amino)-1,3,5-triazin-2-yl)-4-(4-hydroxyphenyl)-6-methyl-2-thioxo-1,2,3,4-tetrahydropyrimidine-5-carboxylate] | non-toxic | 74.8 | 43.2 ± 0.38 | 161 to 163 | 61.3 ± 0.78 | 51.3 ± 0.32 | – | 41.4 ± 0.38 | – | – | – | – | – | – | – |
| CCOC(=O)C1=C(C)N(c2nc(Nc3cccc(Br)c3)nc(Nc3cccc(Br)c3)n2)C(=S)NC1c1ccccc1O (centres unmarked) [7e, Ethyl 1-(4,6-bis((3-bromophenyl)amino)-1,3,5-triazin-2-yl)-4-(2-hydroxyphenyl)-6-methyl-2-thioxo-1,2,3,4-tetrahydropyrimidine-5-carboxylate] | – | 78.5 | 57.4 ± 0.52 | 245 to 247 | 67.8 ± 0.61 | 63.9 ± 0.25 | – | 65.6 ± 0.45 | 89.45 ± 0.45 | – | – | – | – | – | – |
| CCOC(=O)C1=C(C)N(c2nc(Nc3ccccc3Cl)nc(Nc3ccccc3Cl)n2)C(=S)NC1c1ccc(OC)cc1 (centres unmarked) [7f, Ethyl 1-(4,6-bis((2-chlorophenyl)amino)-1,3,5-triazin-2-yl)-4-(4-methoxyphenyl)-6-methyl-2-thioxo-1,2,3,4-tetrahydropyrimidine-5-carboxylate] | – | 81.4 | 47 ± 0.54 | 91 to 93 | 64 ± 0.38 | 55.4 ± 0.12 | – | 46.5 ± 0.36 | 82.14 ± 0.21 | – | – | – | – | – | – |
| CCOC(=O)C1=C(C)N(c2nc(Nc3cccc(F)c3)nc(Nc3cccc(F)c3)n2)C(=S)NC1c1ccccc1OC (centres unmarked) [7g, Ethyl 1-(4,6-bis((3-fluorophenyl)amino)-1,3,5-triazin-2-yl)-4-(2-methoxyphenyl)-6-methyl-2-thioxo-1,2,3,4-tetrahydropyrimidine-5-carboxylate] | – | 94.3 | 31.5 ± 0.21 | 132 to 135 | 47.4 ± 0.27 | 42.1 ± 0.12 | – | 36.3 ± 0.47 | 77.22 ± 0.34 | – | – | – | – | – | – |
| CCOC(=O)C1=C(C)N(c2nc(Nc3ccc([N+](=O)[O-])cc3)nc(Nc3ccc([N+](=O)[O-])cc3)n2)C(=S)NC1c1ccc(Cl)cc1 (centres unmarked) [7h, Ethyl 1-(4,6-bis((4-nitrophenyl)amino)-1,3,5-triazin-2-yl)-4-(4-chlorophenyl)-6-methyl-2-thioxo-1,2,3,4-tetrahydropyrimidine-5-carboxylate] | non-toxic | ~69 | 61.4 ± 0.36 | 146 to 147 | 71.5 ± 0.46 | 73.4 ± 0.65 | – | 69.6 ± 0.38 | – | 69.1 | 69.1 | – | – | – | – |
| CCOC(=O)C1=C(C)N(c2nc(Nc3ccccc3[N+](=O)[O-])nc(Nc3ccccc3[N+](=O)[O-])n2)C(=S)NC1c1cccc(Br)c1 (centres unmarked) [7i, Ethyl 1-(4,6-bis((2-nitrophenyl)amino)-1,3,5-triazin-2-yl)-4-(3-bromophenyl)-6-methyl-2-thioxo-1,2,3,4-tetrahydropyrimidine-5-carboxylate] | non-toxic | ~69 | 66.7 ± 0.67 | 185 to 186 | 76.4 ± 0.33 | 76 ± 0.54 | – | 71.6 ± 0.29 | – | 69.3 | 69.3 | – | – | – | – |
| CCOC(=O)C1=C(C)N(c2nc(Nc3cccc(Br)c3)nc(Nc3cccc(Br)c3)n2)C(=S)NC1c1ccc([N+](=O)[O-])cc1 (centres unmarked) [7k, Ethyl 1-(4,6-bis((3-bromophenyl)amino)-1,3,5-triazin-2-yl)-6-methyl-4-(4-nitrophenyl)-2-thioxo-1,2,3,4-tetrahydropyrimidine-5-carboxylate] | non-toxic | ~69 | 51.3 ± 0.82 | – | 65.6 ± 0.43 | 66.4 ± 0.67 | – | 59.7 ± 0.69 | – | 70.1 | 70.1 | – | – | – | – |
| CCOC(=O)C1=C(C)N(c2nc(Nc3ccc(C)cc3)nc(Nc3ccc(C)cc3)n2)C(=S)NC1c1ccccc1C (centres unmarked) [7n, Ethyl 1-(4,6-bis(p-tolylamino)-1,3,5-triazin-2-yl)-6-methyl-2-thioxo-4-(o-tolyl)-1,2,3,4-tetrahydropyrimidine-5-carboxylate] | non-toxic | 54.2 | 104.5 ± 0.39 | 205 to 207 | 93.2 ± 0.58 | 92.6 ± 0.23 | – | – | – | – | – | – | – | – | – |
| CCOC(=O)C1=C(C)N(c2nc(Nc3ccc(C)cc3)nc(Nc3ccc(C)cc3)n2)C(=S)NC1c1ccc(O)cc1 (centres unmarked) [7o, Ethyl 1-(4,6-bis(p-tolylamino)-1,3,5-triazin-2-yl)-4-(4-hydroxyphenyl)-6-methyl-2-thioxo-1,2,3,4-tetrahydropyrimidine-5-carboxylate] | non-toxic | 45.6 | 98.3 ± 0.27 | 131 to 133 | 89.4 ± 0.49 | 94.3 ± 0.78 | – | – | – | – | – | – | – | – | – |
| N.N.[Cl][Pt][Cl] [Cisplatin, reference compound] | non-toxic | – | – | – | – | – | – | – | – | – | – | 12.3 ± 0.76 | 24.4 ± 0.92 | 32.5 ± 0.62 | 25.9 ± 0.82 |
